Source: PubChem BioAssay (NCI)
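Each compound was tested at five concentrations against cells in 96-well plates for 48 hours. TGI marks complete inhibition of growth.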

Key:
Test in all cases: NCI anticancer screen, dose series, 48 h
MDA-MB-435 = system: MDA-MB-435
OVCAR-4 ovarian = system: OVCAR-4 ovarian
RXF 393 renal = system: RXF 393 renal
HOP-92 NSCLC = system: HOP-92 NSCLC
HL-60(TB) leukemia = system: HL-60(TB) leukemia
OVCAR-8 ovarian = system: OVCAR-8 ovarian
786-0 renal = system: 786-0 renal
TK-10 renal = system: TK-10 renal
T-47D breast = system: T-47D breast
SR leukemia = system: SR leukemia

Structure (SMILES) | TGI (MDA-MB-435) | TGI (OVCAR-4 ovarian) | TGI (RXF 393 renal) | TGI (HOP-92 NSCLC) | TGI (HL-60(TB) leukemia) | TGI (OVCAR-8 ovarian) | TGI (786-0 renal) | TGI (TK-10 renal) | TGI (T-47D breast) | TGI (SR leukemia)
CC1(C)C=C(/C=C2/N(S(=O)(=O)C(F)(F)F)C(/C=C3/N(S(=O)(=O)C(F)(F)F)C(C)(C#N)CC3(C)C)=CC2(C)C)N=C1/C=C1/CC(C)(C)C(=O)N1 (stereo not given) | > 100 µM | > 100 µM | 81.3 µM | 95.3 µM | 21.2 µM | > 100 µM | > 100 µM | > 100 µM | > 100 µM | > 100 µM
NC(=O)c1ccc[n+](C2=C([O-])c3ccccc3C(=O)/C2=N\S(=O)(=O)c2ccccc2)c1 | 17.2 µM | 18.9 µM | 29.5 µM | 26.5 µM | > 100 µM | 28.4 µM | 32.3 µM | > 100 µM | 53.6 µM | > 100 µM
NC(=O)C1CCN(Cc2c(Cl)c(Cl)c(CN3CCC(C(N)=O)CC3)c(Cl)c2Cl)CC1 | > 100 µM | > 100 µM | > 100 µM | > 100 µM | > 100 µM | > 100 µM | > 100 µM | > 100 µM | > 100 µM | > 100 µM
COc1ccc(-c2cc3cc(Cl)cc(Cl)c3oc2=O)cc1OC | > 100 µM | > 100 µM | 75.8 µM | > 100 µM | > 100 µM | > 100 µM | > 100 µM | > 100 µM | > 100 µM | > 100 µM
Nc1c(N2CCOCC2)c(=O)nc2[nH]/c(=C\c3ccccc3O)c(=O)n12 | > 100 µM | > 100 µM | > 100 µM | > 100 µM | > 100 µM | > 100 µM | > 100 µM | > 100 µM | > 100 µM | > 100 µM
O=C(c1ccc([N+](=O)[O-])cc1)N1CCCC1 | > 100 µM | > 100 µM | > 100 µM | > 100 µM | > 100 µM | > 100 µM | > 100 µM | > 100 µM | > 100 µM | > 100 µM
COC1(CC[C@H](C)COC2OC(CO)C(O)C(O)C2O)O[C@H]2C[C@H]3[C@@H]4CC=C5C[C@@H](OC6OC(CO)C(OC7OC(C)C(O)C(O)C7O)C(O)C6OC6OC(C)C(O)C(O)C6O)CC[C@]5(C)[C@H]4CC[C@]3(C)[C@H]2[C@@H]1C (stereo not given in full) | 5.3 µM | 18 µM | 18.4 µM | 6.2 µM | 46.6 µM | 10.1 µM | 5.57 µM | > 100 µM | 9.83 µM | > 100 µM
Cc1c(C(=O)NNc2ccccc2)n2c(=S)[nH]nc2c2ccccc12 | > 100 µM | > 100 µM | > 100 µM | > 100 µM | > 100 µM | > 100 µM | > 100 µM | > 100 µM | > 100 µM | > 100 µM
O=C1C=CC(=O)c2c(O)c(N3CCC[C@@H]3CO)c(Cl)c(O)c21 | 3.78 µM | 3.16 µM | 2.98 µM | 3.04 µM | 0.734 µM | 4.13 µM | 3.17 µM | 3.3 µM | 4.27 µM | 4.88 µM
COc1ccc([C@]23CCC4(OCC(C)(C)CO4)[C@H]4CON(O[C@H](O[C@@H]5CCCCC5C(C)(C)c5ccccc5)C2)[C@@H]43)cc1OC (stereo not given in full) | > 100 µM | > 100 µM | > 100 µM | > 100 µM | 44.4 µM | > 100 µM | > 100 µM | > 100 µM | > 100 µM | 49.4 µM
C[C@H]1[C@H](C)CC[C@]2(C(=O)OC3OC(CO)C(O)C(O)C3O)CC[C@]3(C)C(=CC[C@@H]4[C@@]5(C)C[C@@H](O)[C@@H]6OC(=O)c7cc(O)c(O)c(O)c7-c7c(cc(O)c(O)c7O)C(=O)OC[C@@]6(CO)[C@@H]5CC[C@]43C)[C@H]12 (stereo not given in full) | 37.2 µM | 75.3 µM | > 100 µM | > 100 µM | > 100 µM | > 100 µM | > 53.7 µM | > 100 µM | > 100 µM | > 100 µM
CC1=C(C(=O)OCCO[N+](=O)[O-])C(c2ccccc2[N+](=O)[O-])C(C(=O)OC(C)C)=C(C)N1 (stereo not given) | 28.5 µM | 52.3 µM | 30.3 µM | 31.4 µM | > 100 µM | 63.7 µM | 41.4 µM | 58.4 µM | 46.8 µM | > 100 µM
CC1(C)OCC(C2OC(C)(C)OC2[C@H]2O[C@@]3(O)[C@H]4[C@H](C=CC[C@@H]42)[C@@H](OCc2ccccc2)[C@H](OCc2ccccc2)[C@H]3OCc2ccccc2)O1 (stereo not given in full) | > 100 µM | > 100 µM | 82.1 µM | > 100 µM | 42.4 µM | > 100 µM | > 100 µM | > 100 µM | > 100 µM | 31.4 µM
CCOC(=O)C(NC(=O)c1cccc(Cl)c1)(Nc1cccc(C)c1)C(F)(F)F (stereo not given) | 43.8 µM | 62.8 µM | 26.2 µM | 29 µM | > 100 µM | 61 µM | 47 µM | > 100 µM | 54.5 µM | > 100 µM
N#C/C(C(=O)NCc1ccccc1)=C(/N)N1CCCC1 | > 100 µM | > 100 µM | > 100 µM | > 100 µM | > 100 µM | > 100 µM | > 100 µM | > 100 µM | > 100 µM | > 100 µM
CCc1nc2c(c(N(C)C)c1C(=O)OC)CCc1ccccc1-2 | 65.6 µM | > 100 µM | 73.8 µM | > 100 µM | 9.43 µM | > 100 µM | > 100 µM | > 100 µM | 58.1 µM | 32.9 µM
